Reference: article PMC10388305, “Synthesis and Evaluation of a Monomethyl Auristatin E—Integrin αvβ6 Binding Peptide–Drug Conjugate for Tumor Targeted Drug Delivery” (Journal of Medicinal Chemistry, 2023)
Square brackets hold non-standard residues; d marks the D form. Peptide text beside a SMILES is read from it. * marks the point of attachment. Dolaproine = CO[C@@H]([C@@H]1CCCN1)[C@@H](C)C(=O)O; Dil = CC[C@H](C)[C@H](NC)[C@@H](CC(=O)O)OC; X1 = C[C@@H](N*)[C@@H](O)c1ccccc1; NMeV = CN[C@H](C(=O)O)C(C)C

Assays:
[1] = test system: DX3puroβ6 (+) and DX3puro (−) tumors; assay: Therapy study, control groups (half DX3puroβ6 (+), half DX3puro (−) tumors); type: in vivo, mice
Excerpt: Mice treated with [^natCu]PDC-1 had slower tumor growth compared to the groups receiving saline, non-drug bearing peptide [^natCu]2, or free, non-targeted MMAE (Figure 7). […] All mice in the groups treated with saline, non-drug bearing peptide [^natCu]2, or free, non-targeted MMAE had met an end point criterion (≥2 cm in any direction and/or tumor ulceration) by 56 days, 70 days, and 64 days from start of treatment, respectively, with all these groups having the same median survival of 37 days (Figure 7B).
Figure 7 (A) Average tumor volume over time. (B) Kaplan–Meier survival plot.
Tumor xenografts were established by subcutaneous injection of either DX3puroβ6 or DX3puro cells (3 × 10^6 cells in 100 μL serum-free DMEM/animal) into the flank. The tumors were allowed to grow for 19 days before the start of treatment (day 0). […] Tumor volumes and body weights (to assess possible systemic toxicity) were measured starting on day 0, and once a week thereafter until the end of the study. Tumor volume (V) was determined according to the equation V = (π/6) × L × W × H, where L is the longest axis, W is the axis perpendicular to L, and H is perpendicular to the plane of L and W. End point determination criteria were: any axis >2 cm, active ulceration, or compromised health of the mouse (>20% loss of body weight from the start of the study). […] Survival curves were determined by Kaplan–Meier method.

[2] = test system: DX3puroβ6 (+) cells; assay: WST-1 cell viability assay, DX3puroβ6; type: cell-based; settings: DX3puroβ6 (+); 48 h treatment + 24 h media; mean ± SD
Procedure: (§1) Peptides NH2-2 and [^natCu]2 were not toxic to any cells (Figure 3, gray and black, respectively).
(§2) Cell viability was measured after treatment with either NH2-2, [^natCu]2, MMAE (free, non-targeted drug), NH2-PDC-1, or [^natCu]PDC-1 in DX3puroβ6 (+) and DX3puro (−) cells at variable concentrations up to 5 nM, and in BxPC-3 (+) and MIA PaCa-2 (−) cells at variable concentrations up to 250 nM, or with MMAE at concentrations up to 10 nM. Cells were seeded in a 96 well plate at a density of 6000 cells/well for DX3puroβ6 and DX3puro, and at a density of 10,000 cells/well for BxPC-3 and MIA PaCa-2. DMEM media was used for all cells except for BxPC-3 (RPMI 1640 media). Cells (n = 6–8 wells/cell type/compound) were treated with different concentrations of NH2-2, [^natCu]2, MMAE, NH2-PDC-1, or [^natCu]PDC-1 dissolved in the respective media, as well as their respective media (no treatment) for 48 h (37 °C, 5% CO2), after which the media was removed; cells were washed twice with media (200 μL) and re-incubated in media (37 °C, 5% CO2) for 24 h. The media was then removed and the WST-1 reagent was added to each well, and the cells were incubated for 2 h at 37 °C. The 96 well plates were read at 450 nm by a Multiscan Ascent microplate reader. The percent cell viability was normalized to untreated cells (set as 100% viability) for each cell line.

[3] = cited from earlier work
Procedure: Tumor xenografts were established by subcutaneous injection of either DX3puroβ6 or DX3puro cells (3 × 10^6 cells in 100 μL serum-free DMEM/animal) into the flank. The tumors were allowed to grow for 19 days before the start of treatment (day 0). Mice were treated with either (1) saline, (2) peptide ([^natCu]2), 6 mg/kg, 1.12 μmol/kg), (3) non-targeted drug (MMAE, 0.3 mg/kg, 0.42 μmol/kg), or (4) PDC ([^natCu]PDC-1, 6 mg/kg, 0.88 μmol/kg). Dosing of MMAE was 0.3 mg/kg as per maximum dose with no physiological response.[25] The [^natCu]PDC-1 treatment groups consisted of n = 10/tumor model, whil ...

[4] = test system: MIA PaCa-2 (−) cells; assay: Caspase-3/7 activity assay (ApoTox-Glo), MIA PaCa-2; type: cell-based; settings: 250 nM (MMAE 10 nM, staurosporine 100 nM), 24, 48, 72 h
Procedure: (§3) Caspase-3/7 activity was analyzed using an ApoTox-Glo Triplex Assay kit. Cells were seeded in a 96 well plate at the same density and using the same respective media as described for the WST-1 assay and incubated overnight (37 °C, 5% CO2). DX3puroβ6 and DX3puro cells were treated with 1 nM of MMAE (free, non-targeted drug) or 0.625 nM of the other compounds: NH2-2, [^natCu]2, NH2-PDC-1, or [^natCu]PDC-1. BxPC-3 and MIA PaCa-2 cells were treated with 10 nM of MMAE or 250 nM of the other compounds: NH2-2, [^natCu]2, NH2-PDC-1, or [^natCu]PDC-1. All cells were treated with 100 nM of staurosporine as a positive control.[24] Untreated cells (media) were used as a measure of endogenous caspase-3/7 activity (normalized to 1). Cells were treated (n = 4/cell line/compound/time) for 24, 48, or 72 h (37 °C, 5% CO2) prior to washing. After treatment, the media was removed, cells were washed, and Caspase-Glo 3/7 reagent was added, and incubated for 1 h at room temperature. Caspase-3/7 activity was analyzed by measuring luminescence with a Fluoroskan FL microplate reader according to the manufacturer’s protocol.

[5] = test system: DX3puro (−) cells; assay: Caspase-3/7 activity assay (ApoTox-Glo), DX3puro; type: cell-based; settings: 0.625 nM (MMAE 1 nM, staurosporine 100 nM), 24, 48, 72 h
Procedure: as §3

[6] = test system: MIA PaCa-2 (−) cells; assay: WST-1 cell viability assay, MIA PaCa-2; type: cell-based; settings: MIA PaCa-2 (−); 48 h treatment + 24 h media; up to 250 nM (MMAE up to 10 nM); mean ± SD
Procedure: as §1, §2

[7] = test system: BxPC-3 (+) cells; assay: WST-1 cell viability assay, BxPC-3; type: cell-based; settings: 48 h treatment + 24 h media, mean ± SD
Procedure: as §1, §2

[8] = test system: DX3puroβ6 (+) cells; assay: Caspase-3/7 activity assay (ApoTox-Glo), DX3puroβ6; type: cell-based; settings: DX3puroβ6 (+); 0.625 nM (MMAE 1 nM, staurosporine 100 nM); 24, 48, 72 h
Procedure: as §3

[9] = test system: DX3puro (−) cells; assay: WST-1 cell viability assay, DX3puro; type: cell-based; settings: 48 h treatment + 24 h media, up to 5 nM, mean ± SD
Procedure: as §1, §2

[10] = test system: BxPC-3 (+) cells; assay: Caspase-3/7 activity assay (ApoTox-Glo), BxPC-3; type: cell-based; settings: 250 nM (MMAE 10 nM, staurosporine 100 nM), 24, 48, 72 h
Procedure: as §3

For CC[C@H](C)[C@@H]([C@@H](CC(=O)N1CCC[C@H]1[C@H](OC)[C@@H](C)C(=O)N[C@H](C)[C@@H](O)c1ccccc1)OC)N(C)C(=O)[C@@H](NC(=O)[C@@H](NC)C(C)C)C(C)C [MMAE, monomethyl auristatin E] (H-[NMeV]V[Dil][Dolaproine]-X1), the Median survival ([1]; [natCu]2 6 mg/kg, MMAE 0.3 mg/kg i.v. on days 0, 3, 6, 9, n = 8/group) was 37 days, the “Time by which all mice had met an end point criterion” value ([1]; from start of treatment) was ≤ 64 days and the EC50 [2] was 0.15 ± 0.02 nM. The “Maximum dose with no physiological response” value [3] was 0.3 mg/kg, the “Caspase-3/7 activity (in words)” value [4] was “increased caspase-3/7 activity” and the “Caspase-3/7 activity (in words)” value [5] was “increased caspase-3/7 activity”. For the same compound, the EC50 [6] was 0.16 ± 0.01 nM, the EC50 [7] was 0.5 ± 0.03 nM and the “Caspase-3/7 activity (in words)” value [8] was “increased caspase-3/7 activity”. The EC50 [9] was 0.14 ± 0.03 nM and the “Caspase-3/7 activity (in words)” value [10] was “increased caspase-3/7 activity”.
